Source: publication PMC6242839 (Nature Communications, 2018)
Values after ≈ are worked out from the molar mass of the structure shown. Like-named read-outs stand apart in the source and are kept apart here.

Assays:
[1] = system: Bacillus cereus ATCC 14579; conditions: cited from earlier work
[2] = system: B. anthracis Sterne strain; test: microbe, parasite or virus in culture; type: cell-based; conditions: Bacillus anthracis, read-out: MIC B. anthracis Sterne
[3] = system: B. anthracis pathogenic strain (human isolate); test: microbe, parasite or virus in culture; type: cell-based; conditions: Bacillus anthracis, read-out: MIC B. anthracis Pathogenic
[4] = system: B. anthracis ovine strain (animal isolate); test: microbe, parasite or virus in culture; type: cell-based; conditions: Bacillus anthracis, read-out: MIC B. anthracis Ovine
E. faecalis (ATCC 29212) = test: microbe, parasite or virus in culture; type: cell-based; conditions: Enterococcus faecalis, read-out: MIC E. faecalis
B. cereus (ATCC 10876) = test: microbe, parasite or virus in culture; type: cell-based; conditions: Bacillus cereus, read-out: MIC B. cereus
B. cereus ATCC 14579 [5] = test: microbe, parasite or virus in culture; type: cell-based, Bacillus cereus
B. cereus ATCC 14579 [6] = test: microbe, parasite or virus in culture; type: cell-based, Bacillus cereus; remark: listed apart in the source
[7] = system: B. cereus ATCC 14579 strains resistant to known antibiotics; test: microbe, parasite or virus in culture; type: cell-based, Bacillus cereus
[8] = system: B. subtilis 168 and knockout mutants; test: microbe, parasite or virus in culture; type: cell-based; conditions: Bacillus subtilis
[9] = system: B. cereus ATCC 14579 mutant library; type: cell-based, Bacillus cereus
E. coli K12 = test: microbe, parasite or virus in culture; type: cell-based; conditions: Escherichia coli
E. coli K12 spheroplasts = test: microbe, parasite or virus in culture; type: cell-based, Escherichia coli; conditions: Escherichia coli
B. cereus ATCC 14579 [10] = test: microbe, parasite or virus in culture; type: cell-based; conditions: Bacillus cereus, ATCC14579
[11] = system: B. cereus ATCC 14579 protoplasts; test: microbe, parasite or virus in culture; type: cell-based; conditions: Bacillus cereus, ATCC14579
S. aureus ATCC 29213 = test: microbe, parasite or virus in culture; type: cell-based; conditions: Staphylococcus aureus, ATCC29213
[12] = system: S. aureus ATCC 29213 protoplasts; test: microbe, parasite or virus in culture; type: cell-based, Staphylococcus aureus; conditions: Staphylococcus aureus, ATCC29213
[13] = system: B. cereus ATCC 14579 spores and vegetative cells; test: microbe, parasite or virus in culture; type: cell-based; conditions: Bacillus cereus
[14] = POPE LUVs, compound 50 µM
[15] = POPC LUVs, compound 50 µM
in vitro = conditions: human
[16] = B. subtilis 168, parental isogenic strain
[17] = course of the experiment (14 h)

Q: Which MIC [1] does the source give for Daptomycin here?
A: Its MIC is 3.125 µg/mL.

Q: Which MIC [1] does the source give for `NC[C@H]1O[C@H](O[C@H]2[C@H](O)[C@@H](O[C@H]3O[C@H](CO)[C@@H](O)[C@H](N)[C@H]3O)[C@H](N)C[C@@H]2N)[C@H](O)[C@@H](O)[C@@H]1O` [Kanamycin] here?
A: The MIC was 15 µg/mL (≈ 31 µM).

Q: With Colistin as the molecule, how does the MIC [1] read?
A: The MIC was > 5000 µg/mL.

Q: Which results are given for `CCCCCCCCCCCCO[C@H]1C[C@H](O)[C@@H](O)[C@H](C)O1` [Compound 1]?
A: MIC ([2]; 16 h): 25 µM (≈ 7.91 µg/mL); MIC ([3]; 16 h): 25 µM (≈ 7.91 µg/mL); MIC ([4]; 16 h): 25 µM (≈ 7.91 µg/mL); MIC (E. faecalis (ATCC 29212); ATCC29212, 16 h): 50 µM (≈ 15.8 µg/mL); MIC (B. cereus (ATCC 10876); ATCC10876, 16 h): 25 µM (≈ 7.91 µg/mL); MBC (B. cereus ATCC 14579 [5]): 32 µg/mL (≈ 101 µM); MBC (B. cereus ATCC 14579 [5]; Bacillus cereus, ATCC14579): 16 µg/mL (≈ 50.6 µM); MIC (B. cereus ATCC 14579 [5]; Bacillus cereus, ATCC14579): 16 µg/mL (≈ 50.6 µM); 1000-fold reduction (T99.9) (B. cereus ATCC 14579 [6]): ≤ 60 min; MBC (B. cereus ATCC 14579 [6]): 32 µg/mL (≈ 101 µM); MBC (B. cereus ATCC 14579 [6]; Bacillus cereus, ATCC14579): 16 µg/mL (≈ 50.6 µM); MBC ([7]; Bacillus cereus, ATCC14579): 16 µg/mL (≈ 50.6 µM); MIC ([7]; Bacillus cereus, ATCC14579): 16 µg/mL (≈ 50.6 µM); MBC [8, 16]: 32 µg/mL (≈ 101 µM); MIC [8, 16]: 16 µg/mL (≈ 50.6 µM); MBC ([8]; B. subtilis ΔexpZ): 32 µg/mL (≈ 101 µM); MIC ([8]; B. subtilis ΔexpZ): 16 µg/mL (≈ 50.6 µM); MBC ([8]; B. subtilis ΔmtlA): 32 µg/mL (≈ 101 µM); MIC ([8]; B. subtilis ΔmtlA): 16 µg/mL (≈ 50.6 µM); MBC ([8]; B. subtilis ΔtreP): 16 µg/mL (≈ 50.6 µM); MIC ([8]; B. subtilis ΔtreP): 16 µg/mL (≈ 50.6 µM); MBC ([8]; B. subtilis ΔybbF): 16 µg/mL (≈ 50.6 µM); MIC ([8]; B. subtilis ΔybbF): 16 µg/mL (≈ 50.6 µM); MBC ([8]; B. subtilis ΔybdA): 32 µg/mL (≈ 101 µM); MIC ([8]; B. subtilis ΔybdA): 16 µg/mL (≈ 50.6 µM); MBC ([8]; B. subtilis ΔybdB): 32 µg/mL (≈ 101 µM); MIC ([8]; B. subtilis ΔybdB): 16 µg/mL (≈ 50.6 µM); MBC ([8]; B. subtilis ΔydhO): 32 µg/mL (≈ 101 µM); MIC ([8]; B. subtilis ΔydhO): 16 µg/mL (≈ 50.6 µM); MBC ([8]; B. subtilis ΔyfiB): 32 µg/mL (≈ 101 µM); MIC ([8]; B. subtilis ΔyfiB): 32 µg/mL (≈ 101 µM); MBC ([8]; B. subtilis ΔyfiC): 16 µg/mL (≈ 50.6 µM); MIC ([8]; B. subtilis ΔyfiC): 16 µg/mL (≈ 50.6 µM); MBC ([8]; B. subtilis ΔyfiM): 16 µg/mL (≈ 50.6 µM); MIC ([8]; B. subtilis ΔyfiM): 16 µg/mL (≈ 50.6 µM); MBC ([8]; B. subtilis ΔyfiN): 32 µg/mL (≈ 101 µM); MIC ([8]; B. subtilis ΔyfiN): 16 µg/mL (≈ 50.6 µM); MBC ([8]; B. subtilis ΔyflF): 32 µg/mL (≈ 101 µM); MIC ([8]; B. subtilis ΔyflF): 16 µg/mL (≈ 50.6 µM); MBC ([8]; B. subtilis ΔyfmR): 16 µg/mL (≈ 50.6 µM); MIC ([8]; B. subtilis ΔyfmR): 16 µg/mL (≈ 50.6 µM); MBC ([8]; B. subtilis ΔygaD): 16 µg/mL (≈ 50.6 µM); MIC ([8]; B. subtilis ΔygaD): 16 µg/mL (≈ 50.6 µM); MBC ([8]; B. subtilis ΔyhaQ): 16 µg/mL (≈ 50.6 µM); MIC ([8]; B. subtilis ΔyhaQ): 16 µg/mL (≈ 50.6 µM); MBC ([8]; B. subtilis ΔyhcJ): 16 µg/mL (≈ 50.6 µM); MIC ([8]; B. subtilis ΔyhcJ): 16 µg/mL (≈ 50.6 µM); MBC ([8]; B. subtilis ΔyheH): 32 µg/mL (≈ 101 µM); MIC ([8]; B. subtilis ΔyheH): 16 µg/mL (≈ 50.6 µM); MBC ([8]; B. subtilis ΔyjdD): 16 µg/mL (≈ 50.6 µM); MIC ([8]; B. subtilis ΔyjdD): 16 µg/mL (≈ 50.6 µM); MBC ([8]; B. subtilis ΔykfD): 16 µg/mL (≈ 50.6 µM); MIC ([8]; B. subtilis ΔykfD): 16 µg/mL (≈ 50.6 µM); MBC ([8]; B. subtilis ΔyknU): 32 µg/mL (≈ 101 µM); MIC ([8]; B. subtilis ΔyknU): 16 µg/mL (≈ 50.6 µM); MBC ([8]; B. subtilis ΔykoD): 16 µg/mL (≈ 50.6 µM); MIC ([8]; B. subtilis ΔykoD): 16 µg/mL (≈ 50.6 µM); MBC ([8]; B. subtilis ΔykpA): 32 µg/mL (≈ 101 µM); MIC ([8]; B. subtilis ΔykpA): 16 µg/mL (≈ 50.6 µM); MBC ([8]; B. subtilis ΔyvcC): 32 µg/mL (≈ 101 µM); MIC ([8]; B. subtilis ΔyvcC): 16 µg/mL (≈ 50.6 µM); MBC ([8]; B. subtilis ΔywbA): 32 µg/mL (≈ 101 µM); MIC ([8]; B. subtilis ΔywbA): 16 µg/mL (≈ 50.6 µM); MBC ([8]; B. subtilis ΔywhQ): 32 µg/mL (≈ 101 µM); MIC ([8]; B. subtilis ΔywhQ): 16 µg/mL (≈ 50.6 µM); MBC ([8]; B. subtilis ΔyxdM): 32 µg/mL (≈ 101 µM); MIC ([8]; B. subtilis ΔyxdM): 16 µg/mL (≈ 50.6 µM); MBC ([8]; B. subtilis ΔyybL): 32 µg/mL (≈ 101 µM); MIC ([8]; B. subtilis ΔyybL): 16 µg/mL (≈ 50.6 µM); MIC of mutant library compared with the parental strain [9]: MIC values remain unchanged; MIC (E. coli K12): 256 µg/mL (≈ 809 µM); MIC (E. coli K12 spheroplasts): 4 µg/mL (≈ 12.6 µM); MIC (B. cereus ATCC 14579 [10]): 16 µg/mL (≈ 50.6 µM); MIC [11]: 16 µg/mL (≈ 50.6 µM); MIC (S. aureus ATCC 29213): 256 µg/mL (≈ 809 µM); MIC [12]: 256 µg/mL (≈ 809 µM); MBC ([13]; ATCC14579, 20 min): 8 µg/mL (≈ 25.3 µM); MBC ([13]; ATCC14579, 0.5 h): 8 µg/mL (≈ 25.3 µM); time of leakage, τL [14]: about 160 min; leakage of encapsulated carboxyfluorescein [14, 17]: ~ 100%; Lmax value obtained from the fit [15]: < 50%; time of leakage, τL [15]: about 692 min; total membrane leakage [15, 17]: ~ 30%; IC50 at 24 h (in vitro): 100 µM; IC50 at 48 h (in vitro): > 50 µM

Q: For `CCn1cc(C(=O)O)c(=O)c2cc(F)c(N3CCNCC3)cc21` [Norfloxacin], which MIC [1] is on record?
A: The MIC was 1.25 µg/mL (≈ 3.91 µM).

Q: Which results are given for `O=C(N[C@H](CO)[C@H](O)c1ccc([N+](=O)[O-])cc1)C(Cl)Cl` [Chloramphenicol, reference compound]?
A: MIC ([2]; 16 h at 37 °C): 25 µM (≈ 8.08 µg/mL); MIC ([3]; 16 h at 37 °C): 25 µM (≈ 8.08 µg/mL); MIC ([4]; 16 h at 37 °C): 25 µM (≈ 8.08 µg/mL); MIC (E. faecalis (ATCC 29212); ATCC29212, 16 h at 37 °C): 19 µM (≈ 6.14 µg/mL); MIC (B. cereus (ATCC 10876); ATCC10876, 16 h at 37 °C): 19 µM (≈ 6.14 µg/mL); MIC [1]: 2.5 µg/mL (≈ 7.74 µM)

Q: With `CNC(C)C1CCC(N)C(OC2C(N)CC(N)C(OC3OCC(C)(O)C(NC)C3O)C2O)O1` (centres unmarked) [Gentamicin] as the molecule, how does the MIC [1] read?
A: Its MIC is 4 µg/mL (≈ 8.38 µM).

Q: With `CCCCCCCCCCCCO[C@@H]1C[C@@H](O)[C@H](O)CO1` [Compound 17] as the molecule, how does the MIC ([2]; 16 h at 37 °C) read?
A: Its MIC is 26 µM (≈ 7.86 µg/mL).

Q: What about the MIC ([3]; 16 h at 37 °C) of the same molecule?
A: Its MIC is 52 µM (≈ 15.7 µg/mL).

Q: And the MIC ([4]; 16 h at 37 °C)?
A: The MIC was 52 µM (≈ 15.7 µg/mL).

Q: And the MIC (E. faecalis (ATCC 29212); ATCC29212, 16 h at 37 °C)?
A: Its MIC is > 52 µM.

Q: And the MIC (B. cereus (ATCC 10876); ATCC10876, 16 h at 37 °C)?
A: The MIC was 52 µM (≈ 15.7 µg/mL).

Q: And the MBC (B. cereus ATCC 14579 [5]; Bacillus cereus, ATCC14579)?
A: Its MBC is 16 µg/mL (≈ 52.9 µM).

Q: And the MIC (B. cereus ATCC 14579 [5]; Bacillus cereus, ATCC14579)?
A: Its MIC is 16 µg/mL (≈ 52.9 µM).

Q: What about the IC50 at 24 h (in vitro) of the same molecule?
A: The IC50 at 24 h was > 100 µM.

Q: What about the IC50 at 48 h (in vitro) of the same molecule?
A: The IC50 at 48 h was > 100 µM.

Q: With `CC[C@H]1OC(=O)[C@H](C)[C@@H](O[C@H]2C[C@@](C)(OC)[C@@H](O)[C@H](C)O2)[C@H](C)[C@@H](O[C@@H]2O[C@H](C)C[C@H](N(C)C)[C@H]2O)[C@](C)(O)C[C@@H](C)C(=O)[C@H](C)[C@@H](O)[C@]1(C)O` [Erythromycin] as the molecule, how does the “MIC of the antibiotic” value [7] read?
A: The value was 20 µg/mL.

Q: What about the MIC [1] of the same molecule?
A: The MIC was 8 µg/mL (≈ 10.9 µM).
